What was measured:
[1] = Dissolution measurement by USP Apparatus 2 (Paddle Apparatus), HPLC analysis; assay type: physicochemical; settings: in a capsule, 500 ml 0.1 N HCl pH 1.1, N=6
Method: Dissolution studies were conducted to measure the rates of dissolution of active ingredients using a USP Apparatus 2 (Paddle Apparatus) with a dissolution fluid of 500 ml deaerated 0.1 N HCl (i.e., pH 1.1) at 37.0+/−0.5° C. Dissolution samples were analyzed by HPLC.
Dissolution medium of 0.1N HCl was prepared by mixing approximately 85 ml of concentrated (12N) Hydrochloric Acid with 10 L of water. Stock promethazine HCl standard solution was prepared by adding approximately 30 ml of dissolution medium to 25.0 mg of dried Promethazine Hydrochloride USP reference standard in a 50 ml volumetric flash, diluted to volume with dissolution media, and mixed well. […] The resulting solution is diluted to volume with dissolution medium and mixed well.
The dissolution apparatus used is USP Apparatus 2 (Paddle Apparatus) with a speed of 50 rpm at 37.0° C.±0.5° C. Dissolution medium (500 ml) was Helium sparged for at least 10 minutes. N=6 samples were tested. Sample time point of 5, 10, 15, 20, 30, 45, 60, and 90 minutes (final time point at 250 rpm). Filters: QLA 10 μm in-line full flow porous filter or equivalent; chromafil 1.0 μm on-line glass fiber membrane filter or equivalent.
The dissolution apparatus was assembled and the paddle was positioned so that the distance between its lower edge and the lower inner surface of the vessel is within 25 mm±2 mm throughout the test. This step was repeated for each of the six vessels. The speed (50 rpm) and the temperature (37.0° C.±0.5° C.) were set. 500 mL of 0.1N HCl solution were placed into each of the six vessels, previously degassed via helium purge, degassed using degasser or other suitable means. The Dissolution medium was equilibrated to set temperature and the temperature of the dissolution medium was checked with a thermometer or thermocouple before starting the dissolution. Each of the six (6) capsules were accurately weighed and the weight was recorded. The dissolution test was started. Each capsule was dropped with sinker into vessels noting the station assigned to each recorded capsule weight. The shaft was rotated at 50 rpm. Samples were withdrawn by dissolution auttosampler at 5, 10, 15, 20, 30, 45, 60, and 90 minutes into HPLC vials, or were withdraw manually. Filters (QLA 10 μm in-line full flow porous filter or equivalent; chromafil 1.0 μm on-line glass fiber membrane filter or equivalent) were utilized, discarding at least the first 5 mL of the filtrate, and clear filtrate was transfered into HPLC vials. After withdrawing samples at the 60 minute time point, the paddle rotation speed was increased to 250 rpm until the next time point of 90 minutes.
HPLC conditions: Flow rate: 1.0 ml/min; Injection Volume: 10 μL; Column Temperature: 40° C.±2° C.; Wavelengths: 240 nm; Run Time: 7 minutes; Mobile Phase A was 0.2% TFA in Water, which was prepared by mixing well 2.0 ml of trifluoroacetic acid with 1 L of water. Mobile Phase B: 0.2% TFA in Acetonitrile, which was prepared by mixing well 2.0 ml of trifluoroacetic acid to 1 L of acetonitrile; and Gradient used was as follows in Table 8.
If a Water® dissolution autosampler was utilized, then the Empower Dissolution Software was used to calculate the profile. Calculation are performed using a validated excel spreadsheet. When the sample was performed manually, the volume correction was considered for the calculation.

[2] = Impurity profile (related substances) by HPLC, initial and after one month at 40° C. (stability study); assay type: physicochemical; settings: HPLC percent area
Method: The percentages of related substances were measured using an HPLC.
Stock promethazine HCl selectivity solution was prepared by accurately weighing about 2 mg of EP promethazine for peak identification CRS and transferring into 1 mL of diluent (prepared by mixing 750 mL of mobile phase A and 250 mL of acetonitrile), followed by vortexing to dissolve.
Ten capsules were randomly selected and weighed. The contents of the ten capsules were emptied into a 500 mL volumetric flask. 300 mL of diluent was added and the mixture was sonicated in an ice bath for 40 minutes or until completely disintegrated with intermittent swirling. The temperature was equilibrated to room temperature and more diluent was added to volume.
Promethazine HCl impurity sample solution: stock solution sample was filtered through a 0.45 μm PVDF membrane, syringe filter or a 0.45 μm PTFE w/GMF membrane, syringe filter discarding the first 5 mL and collecting approximately 20 mL into an appropriate glass container. Fill an HPLC vial with the filtrate
The RT of the promethazine in the promethazine HCl selectivity solution is between 44.1 and 53.9.
Mobile Phase B: 0.2% TFA in Acetonitrile, which was prepared by mixing well 2.0 ml of trifluoroacetic acid to 1 L of acetonitrile; and Gradient used was as follows in Table 15.
All known and unknown impurities were calculated via percent area as follow:
[formula] Where: • Ru=Peak area of related substance in the sample solution • Rt=Sum of peak area of promethazine or sumatriptan and all related substances areas corresponding to respective peak in sample solution • RRF=Relative Response Factor for related substances
The formulation was examined for its stability after one month at 40° C.

[3] = after 1 month store at 40° C., 5 min, 50 rpm
[4] = after 1 month store at 40° C., 10 min, 50 rpm
[5] = after 1 month store at 40° C., 15 min, 50 rpm
[6] = after 1 month store at 40° C., 20 min, 50 rpm
[7] = after 1 month store at 40° C., 30 min, 50 rpm
[8] = after 1 month store at 40° C., 45 min, 50 rpm
[9] = after 1 month store at 40° C., 60 min, 50 rpm
[10] = after 1 month store at 40° C., 90 min (250 rpm after 60 min)
[11] = large batch, 90 min (250 rpm after 60 min)

For `CNS(=O)(=O)Cc1ccc2[nH]cc(CCN(C)C)c2c1` [Sumatriptan, Sumatriptan succinate], the “Dissolution (% release), Max.” value [1, 3] was 77, the “Dissolution (% release), Mean” value [1, 3] was 60 and the “Dissolution (% release), Min.” value [1, 3] was 47. The “Dissolution (% release), Max.” value [1, 4] was 89, the “Dissolution (% release), Mean” value [1, 4] was 76 and the “Dissolution (% release), Min.” value [1, 4] was 62. For the same compound, the “Dissolution (% release), Max.” value [1, 5] was 91, the “Dissolution (% release), Mean” value [1, 5] was 81 and the “Dissolution (% release), Min.” value [1, 5] was 69. For the same compound, the “Dissolution (% release), Max.” value [1, 6] was 94, the “Dissolution (% release), Mean” value [1, 6] was 85 and the “Dissolution (% release), Min.” value [1, 6] was 74. For the same compound, the “Dissolution (% release), Max.” value [1, 7] was 95, the “Dissolution (% release), Mean” value [1, 7] was 88 and the “Dissolution (% release), Min.” value [1, 7] was 80. For the same compound, the “Dissolution (% release), Max.” value [1, 8] was 97, the “Dissolution (% release), Mean” value [1, 8] was 91 and the “Dissolution (% release), Min.” value [1, 8] was 84. For the same compound, the “Dissolution (% release), Max.” value [1, 9] was 98, the “Dissolution (% release), Mean” value [1, 9] was 93 and the “Dissolution (% release), Min.” value [1, 9] was 86. The “Dissolution (% release), Max.” value [1, 10] was 100, the “Dissolution (% release), Mean” value [1, 10] was 98 and the “Dissolution (% release), Min.” value [1, 10] was 96. The “Dissolution (% release), Max.” value ([1]; large batch, 5 min, 50 rpm) was 73, the “Dissolution (% release), Mean” value ([1]; large batch, 5 min, 50 rpm) was 66 and the “Dissolution (% release), Min.” value ([1]; large batch, 5 min, 50 rpm) was 56. The “Dissolution (% release), Max.” value ([1]; large batch, 10 min, 50 rpm) was 86, the “Dissolution (% release), Mean” value ([1]; large batch, 10 min, 50 rpm) was 80 and the “Dissolution (% release), Min.” value ([1]; large batch, 10 min, 50 rpm) was 73. The “Dissolution (% release), Max.” value ([1]; large batch, 15 min, 50 rpm) was 89, the “Dissolution (% release), Mean” value ([1]; large batch, 15 min, 50 rpm) was 85 and the “Dissolution (% release), Min.” value ([1]; large batch, 15 min, 50 rpm) was 81. For the same compound, the “Dissolution (% release), Max.” value ([1]; large batch, 20 min, 50 rpm) was 91, the “Dissolution (% release), Mean” value ([1]; large batch, 20 min, 50 rpm) was 88 and the “Dissolution (% release), Min.” value ([1]; large batch, 20 min, 50 rpm) was 84. For the same compound, the “Dissolution (% release), Max.” value ([1]; large batch, 30 min, 50 rpm) was 93, the “Dissolution (% release), Mean” value ([1]; large batch, 30 min, 50 rpm) was 90 and the “Dissolution (% release), Min.” value ([1]; large batch, 30 min, 50 rpm) was 87. For the same compound, the “Dissolution (% release), Max.” value ([1]; large batch, 45 min, 50 rpm) was 95, the “Dissolution (% release), Mean” value ([1]; large batch, 45 min, 50 rpm) was 93 and the “Dissolution (% release), Min.” value ([1]; large batch, 45 min, 50 rpm) was 91. The “Dissolution (% release), Max.” value ([1]; large batch, 60 min, 50 rpm) was 96, the “Dissolution (% release), Mean” value ([1]; large batch, 60 min, 50 rpm) was 94 and the “Dissolution (% release), Min.” value ([1]; large batch, 60 min, 50 rpm) was 92. The “Dissolution (% release), Max.” value [1, 11] was 98, the “Dissolution (% release), Mean” value [1, 11] was 98 and the “Dissolution (% release), Min.” value [1, 11] was 97. The “Impurity percentages, all related substances combined” value ([2]; in a capsule stored at 40° C. for 1 month) was “None Detected” and the “Impurity percentages, all related substances combined” value ([2]; in a capsule, initial (before storage)) was 0.1%.

Source: patent US10772840B2 (Charleston Laboratories, Inc., priority 2016, dated 2020)
